{"source": "patent US20090246240A1", "about": "“DRY BACTERICIDAL NONWOVEN WIPE” (priority 2008, published 2009)", "key": {"[1]": {"system": "methicillin resistant Staphylococcus aureus (MRSA)", "experiment": "AATCC Test Method 100: Assessment of Antibacterial Finishes on Textile Materials (MRSA)", "assay_type": "cell-based", "from_the_text": "(§1) A dry bactericidal wipe comprising was formed using 100% 1.5 denier Visocel® rayon fibers 38-mm in length, available from SNIACE of Torrelavega, Cantabria, Spain. A binder composition containing 5% of an acrylic binder, ST 954, available from Rohm and Hass Chemicals LLC of Charlotte, N.C., U.S.A. and 95% water was applied first using foam application at the first application at a level of about 10.6 grams per square yard, heating using steam or oil heated cans for about 45 seconds at a temperature of about 275° Fahrenheit. A second application of the binder/bactericidal composition containing 5% of the ST 954 acrylic binder, 1% tetradecylbenzyldimethyl ammonium chloride, and 94% water was applied by padding at a level of about 1.2 grams per square yard. The web is then heated in the same manner as above. The wipe has thickness of about 11 mils measured according to ASTM D 1777 and a basis weight of 37.8 g/yd^2, measured according to ASTM D 3776. A sample was prepared for bactericidal testing according to AATCC Test Method 100: Assessment of Antibacterial Finishes on Textile Materials.\n(§2) Another aspect of the present invention is the discovery of a new use for a certain bactericidal agent, namely the tetradecylbenzyldimethyl ammonium chloride. As will be appreciated by those skilled in the art, there are various methods to assess the effectiveness of a bactericidal agent. The discovery here is that this particular bactericidal agent provides a greater than 90%, preferably greater than 95%, and more preferably greater than 99% reduction in bacterium, including methicillin resistant Staphylococcus aureus (MRSA or Mursa), Staphylococcus aureus, Klebsiella pneumoniae, or combinations thereof. One method for determining the reduction of such organisms is American Association of Textile Chemists and Colorists (AATCC) Test Method 100, using American Type Culture Collection (ATCC) reference organisms ATCC 33591, methicillin resistant Staphylococcus aureus (MRSA), ATCC 6538, Staphylococcus aureus, and ATCC 4352, Klebsiela pneumoniae. […]"}, "Staphylococcus aureus": {"system": "Staphylococcus aureus", "experiment": "AATCC Test Method 100: Assessment of Antibacterial Finishes on Textile Materials (Staphylococcus aureus)", "assay_type": "cell-based, ATCC 6538", "from_the_text": "as §1, §2"}, "Klebsiella pneumoniae": {"system": "Klebsiella pneumoniae", "experiment": "AATCC Test Method 100: Assessment of Antibacterial Finishes on Textile Materials (Klebsiella pneumoniae)", "assay_type": "cell-based, ATCC 4352", "from_the_text": "as §1, §2"}, "[2]": {"conditions": "listed as tetradecyl benzyl dimethyl ammonium chloride"}, "[3]": {"conditions": "listed as tetradecyldimethylbenzyl ammonium chloride"}}, "note": "Read-outs that look alike come from different tables or passages of the source."}
{"smiles": "CCCCCCCCCCCCCC[N+](C)(C)Cc1ccccc1.[Cl-]", "note": "[tetradecylbenzyldimethyl ammonium chloride]", "values": [{"measurement": "reduction in methicillin resistant Staphylococcus aureus (MRSA)", "setting": "[1]", "result": "greater than 90%"}, {"measurement": "reduction in methicillin resistant Staphylococcus aureus (MRSA)", "setting": "[1]; [2]", "result": "greater than 90%"}, {"measurement": "reduction in methicillin resistant Staphylococcus aureus (MRSA)", "setting": "[1]; [3]", "result": "more than 99%"}, {"measurement": "reduction in Staphylococcus aureus bacterium", "setting": "Staphylococcus aureus", "result": "greater than 90%"}, {"measurement": "reduction in Staphylococcus aureus bacterium", "setting": "Staphylococcus aureus; [2]", "result": "greater than 90%"}, {"measurement": "reduction in Staphylococcus aureus bacterium", "setting": "Staphylococcus aureus; [3]", "result": "more than 99%"}, {"measurement": "reduction in the Klebsiella pneumoniae bacterium", "setting": "Klebsiella pneumoniae", "result": "greater than 90%"}, {"measurement": "reduction in the Klebsiella pneumoniae bacterium", "setting": "Klebsiella pneumoniae; [2]", "result": "greater than 90%"}, {"measurement": "reduction in the Klebsiella pneumoniae bacterium", "setting": "Klebsiella pneumoniae; [3]", "result": "more than 99%"}]}
